Experimental data published in patent US20120251551A1, “Substituted (Heteroarylmethyl)thiohydantoins” (BAYER PHARMA AKTIENGESELLSCHAFT, priority 2009, published 2012).
Substitutions are numbered along the chain they refer to. Read-outs that look alike come from different tables or passages of the source.

Experiments:
[1] = molecular target: T1, wild-type human androgen receptor (Homo sapiens, UniProt P10275); assay: Cell-based transactivation assay for wild-type human androgen receptor (PC-3 cells, MMTV-luciferase reporter)
T1 construct: expressed in transfected cells
T1 sequence (P10275 1-920): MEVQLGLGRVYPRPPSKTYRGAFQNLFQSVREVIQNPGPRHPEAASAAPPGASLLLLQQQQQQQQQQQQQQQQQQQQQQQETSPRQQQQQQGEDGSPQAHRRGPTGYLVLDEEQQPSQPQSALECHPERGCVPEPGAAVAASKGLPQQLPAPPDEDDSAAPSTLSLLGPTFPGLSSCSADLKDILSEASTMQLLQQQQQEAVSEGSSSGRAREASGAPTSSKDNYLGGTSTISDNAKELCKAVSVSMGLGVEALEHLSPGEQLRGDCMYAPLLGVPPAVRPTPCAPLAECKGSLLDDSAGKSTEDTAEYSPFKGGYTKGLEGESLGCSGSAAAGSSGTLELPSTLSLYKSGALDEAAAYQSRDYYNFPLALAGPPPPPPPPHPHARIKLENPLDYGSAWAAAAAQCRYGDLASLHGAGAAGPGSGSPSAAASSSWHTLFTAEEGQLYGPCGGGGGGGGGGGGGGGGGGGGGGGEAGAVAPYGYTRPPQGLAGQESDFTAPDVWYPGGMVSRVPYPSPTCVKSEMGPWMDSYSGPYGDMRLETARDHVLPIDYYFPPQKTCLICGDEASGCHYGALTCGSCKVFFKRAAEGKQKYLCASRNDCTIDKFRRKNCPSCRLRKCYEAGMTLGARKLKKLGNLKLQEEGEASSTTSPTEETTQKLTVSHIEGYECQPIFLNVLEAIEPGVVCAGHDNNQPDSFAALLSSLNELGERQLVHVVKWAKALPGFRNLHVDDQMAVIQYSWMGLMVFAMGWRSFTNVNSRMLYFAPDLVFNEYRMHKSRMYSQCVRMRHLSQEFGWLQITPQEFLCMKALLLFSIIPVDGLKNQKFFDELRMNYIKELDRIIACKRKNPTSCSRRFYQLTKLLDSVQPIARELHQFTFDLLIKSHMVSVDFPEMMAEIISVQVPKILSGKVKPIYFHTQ
Procedure: Cell-Based Transactivation Assay for Wild-Type Human Androgen Receptor
PC-3 cells (Kaighn et al., Invest. Urol. 17:16-23, 1979) stably transfected with the human androgen receptor (Swiss-Prot Acc. No. P10275, Entry Version 159, Sequence Version 2) and a reporter plasmid based on pGL4.14 (#E6691, Promega Corporation, Madison, Wis., USA) containing the MMTV promoter (Cato et al., EMBO J. 6:363-8, 1987) were used. They were grown in 5% charcoal-stripped medium and seeded at a concentration of 1000 cells per well in a 384-well plate. For determination of antagonistic activity, the plate additionally contained the compound to be tested at a concentration range varying from 5.12×10^−12 to 1×10^−5 M. The assay was performed in presence of 1×10^−10 R1881 (also known as methyltrienolone). After overnight incubation at 37° C. in a 5% CO2 atmosphere, 15 μl of Steady Glo Lysis and Detection reagent (Steady Glo Luciferase assay system E2550 from Promega Corporation. Madison, Wis., USA) were added. IC50 was calculated for anti-androgenic activity as well as percentage inhibition in presence of 2 μM compound in comparison to non-stimulated luciferase signal. Agonistic activity was determined using the same concentration range of compound in the absence of R1881 by measuring Luciferase activity as above. EC50 was calculated for androgenic activity. Assay/read plates were used (Polystyrol; 384, NV-white cell culture plates; Perkin Elmer).

[2] = molecular target: T2, human androgen receptor E709Y mutant (Homo sapiens, UniProt P10275, E710Y); assay: Cell-based transactivation assay for human androgen receptor mutant E709Y
T2 construct: expressed in transfected cells; host or cells: PC-3 cells, transient transfection with a pSG5-derived plasmid
T2 sequence (P10275 1-920 E710Y): T1 sequence (P10275 1-920) with E710Y
Procedure: Cell-Based Transactivation Assay for Human Androgen Receptor Mutant E709Y
PC-3 cells (Kaighn et al., Invest. Urol. 17:16-23, 1979) were grown in 5% charcoal-stripped medium and seeded at a concentration of 10000 cells per well in a 96-well plate. They were transiently transfected with a pSG5-derived plasmid (#216201 from Stratagene, La Jolla, Calif., USA) coding for the human androgen receptor E709Y mutant (Georget et al., Molecular Endocrinology, 20(4): 724-734, 2006) and an MMTV-Luciferase reporter plasmid based on pGL4.14 14 (#E6691, Promega Corporation, Madison, Wis., USA). The compound to be tested was added at a concentration range varying from 1×10^−9 to 1×10^−6 M together with 1×10^−10 R1881. After 24 h incubation at 37° C. in a 5% CO2 atmosphere, 100 μl of Steady Glo Lysis and Detection reagent (Steady Glo Luciferase assay system E2550 from Promega Corporation. Madison, Wis., USA) were added. Antagonistic activity was determined by measuring Luciferase activity in a Victor 3 Luminometer (PerkinElmer, Waltham, Mass., USA) using the Steady Glo Luciferase Assay (E2550, Promega). IC50 values were calculated for anti-androgenic activity.

LNCaP cells = assay: Proliferation assay with LNCaP cells; format: cell-based; settings: Homo sapiens, 168 h, R1881 (1×10^−10) stimulated growth, day 7, read-out: inhibition IC50 (LNCaP)
Procedure: Proliferation Assay with LNCaP Cells
LNCaP cells (Horoszewicz et al., in “Models for Prostate Cancer” (ed. G. P. Murphy), Alan R. Liss, New York 1981, p. 115-132; Horoszewicz et al., Cancer Res. 43:1809-1818, 1983) were seeded at 2000 cells/well in 96-well plates in RPMI (F1235, Biochrom AG, Berlin, Germany) without phenol red supplemented with 5% charcoal-stripped serum. After 3 days, the cells were treated with R1881) (1×10^−10) and compound (day 0). Cell number was determined by Alamar Blue (DAL1100, Invitrogen, Life Technologies, Lohne, Germany) staining (2.5 h) at day 0 and day 7. Fluorescence was determined in Victor3 (Excitation 530 nm; emission 590 nm). Stimulated growth was defined as the signal measured at day 7 for cells treated only with R1881. Basal level was defined as the signal measured at day 7 for cells grown without R1881.

[3] = molecular target: T3, human androgen receptor W741L mutant (Homo sapiens, UniProt P10275, W742L); assay: Cell-based transactivation assay for human androgen receptor mutant W741L
T3 construct: expressed in transfected cells; host or cells: PC-3 cells, transient transfection with a pSG5-derived plasmid
T3 sequence (P10275 1-920 W742L): T1 sequence (P10275 1-920) with W742L

VCaP cells = assay: Proliferation assay with VCaP cells; format: cell-based; settings: Homo sapiens, 168 h, R1881 (1×10^−10) stimulated growth
Procedure: Proliferation Assay with VCaP Cells
VCaP cells ((Korenchuk et al., In Vivo 15: 163-168, 2001)) were seeded at 16 000 cells/well in 96-well plates in DMEM (F0445, Biochrom AG, Berlin, Germany) with phenol red supplemented with 10% charcoal-stripped serum. After 1 day, the cells were treated with R1881 (1×10^−10) and compound (day 0). Cell number was determined by Alamar Blue (DAL1100, Invitrogen, Life Technologies, Lohne, Germany) staining (2.5 h) at day 0 and day 7. Fluorescence was determined in Victor3 (Excitation 530 nm; emission 590 nm). Stimulated growth was defined as the signal measured at day 7 for cells treated only with R1881. Basal level was defined as the signal measured at day 7 for cells grown without R1881.

[4] = day 7, read-out: Antiproliferative activity VCaP IC50
[5] = day 7, read-out: inhibition IC50 (VCaP)

Row | Compound | EC50 [1] | IC50 [2] | IC50 (LNCaP cells) | IC50 [3] | IC50 (VCaP cells; [4]) | IC50 (VCaP cells; [5])
1 | CC1(C)C(=O)N(c2ccc(C#N)c(C(F)(F)F)c2)C(=S)N1Cc1ccc(OCCN2CCOCC2)nc1 [Example 3, 4-[4,4-Dimethyl-3-({6-[2-(morpholin-4-yl)ethoxy]pyridin-3-yl}methyl)-5-oxo-2-thioxoimidazolidin-1-yl]-2-(trifluoromethyl)benzonitrile] | > 10000 nM | 79.5 nM | 127 nM | 118 nM | 176 nM | –
2 | CC1(C)C(=O)N(c2ccc(C#N)c(C(F)(F)F)c2)C(=S)N1Cc1ccc(OC2CCOCC2)nc1 [Example 5, 4-(4,4-Dimethyl-5-oxo-3-{[6-(tetrahydro-2H-pyran-4-yloxy)pyridin-3-yl]methyl}-2-thioxoimidazolidin-1-yl)-2-(trifluoromethyl)benzonitrile] | > 10000 nM | 44.8 nM | 200 nM | 49.7 nM | – | –
3 | CC1CN(c2ccc(CN3C(=S)N(c4ccc(C#N)c(C(F)(F)F)c4)C(=O)C3(C)C)cn2)CCO1 (stereo not drawn) [Example 7, 4-(4,4-Dimethyl-3-{[6-(2-methylmorpholin-4-yl)pyridin-3-yl]methyl}-5-oxo-2-thioxoimidazolidin-1-yl)-2-(trifluoromethyl)benzonitrile] | > 10000 nM | 22.6 nM | 118 nM | 49.1 nM | 106 nM | 106 nM
4 | COc1ccc(CN2C(=S)N(c3ccc(C#N)c(C(F)(F)F)c3)C(=O)C2(C)C)cn1 [Example 8, 4-{3-[(6-Methoxypyridin-3-yl)methyl]-4,4-dimethyl-5-oxo-2-thioxoimidazolidin-1-yl}-2-(trifluoromethyl)benzonitrile] | 8860 nM | 9.18 nM | 120 nM | 49.2 nM | 92.5 nM | 92 nM
5 | Cc1nccn1-c1ccc(CN2C(=S)N(c3ccc(C#N)c(C(F)(F)F)c3)C(=O)C2(C)C)cn1 [Example 15, 4-(4,4-Dimethyl-3-{[6-(2-methyl-1H-imidazol-1-yl)pyridin-3-yl]methyl}-5-oxo-2-thioxoimidazolidin-1-yl)-2-(trifluoromethyl)benzonitrile] | > 10000 nM | 29.9 nM | 116 nM | 13.2 nM | 253 nM | –
6 | CC1(C)CC(=O)N(c2ccc(CN3C(=S)N(c4ccc(C#N)c(C(F)(F)F)c4)C(=O)C3(C)C)cn2)C1 [Example 16, 4-(3-{[6-(4,4-Dimethyl-2-oxopyrrolidin-1-yl)pyridin-3-yl]methyl}-4,4-dimethyl-5-oxo-2-thioxoimidazolidin-1-yl)-2-(trifluoromethyl)benzonitrile] | > 10000 nM | 143 nM | 121 nM | 78.5 nM | – | –
